In data set [1] the target is T1, inducible NO synthase (NOS2) (Homo sapiens, UniProt P35228).
T1 construct: endogenous in cells; host or cells: normal human keratinocytes (primary culture), induced with interferon-gamma and interleukin 1-beta
The data set can be described thus: screening test of the modulation of induction of NOS2 by normal human keratinocytes (nitrite and nitrate measurement). Type of data set: cell-based. The settings on record: for % inhibition: cytokine-induced normal human keratinocytes, nitrites and nitrates. On the procedure: The activity of N,N′-bis-(3,4,5-trimethoxybenzyl) ethylenediamine-diacetic acid on the inducible NO synthase was evaluated in the assay described by Heck et al. (J.B.C., vol. 267, No. 30, 21277-21280, 25 Oct. 1992), a screening test of the modulation of induction of NOS2 by normal human keratinocytes. The objective of this test is, briefly, to evaluate the concentration of nitrate and nitrite after stimulation of the NO-synthase 2.
The test is carried out on a culture of normal human keratinocytes, derived from samples taken. The induction of the inducible NO synthase (NOS2) was caused by the addition of a combination of several cytokines to the culture medium. The product tested was applied at three concentrations varying from 10 to 1000 μM.
The product tested was classed in one of the following two categories: inhibitor (I) or donor (D) of NO (nitric oxide) according to its capacity to diminish or increase, respectively, the quantity of nitrites and nitrates produced compared to the control signal […].
The following controls were introduced in the test:
A: positive control (induction of the enzyme): mixtures of interferon-γ(1000 u/ml) and interleukin 1-β (100 u/ml)
In order to determine the activity of the test product the quantity of stable NO reaction products (nitrites and nitrates) is measured with the aid of the “nitric colorimetric assay” kit sold by the Boehringer company under catalogue number 1756.28.
N,N′-bis(3,4,5-trimethoxybenzyl) ethylenediamine-diacetic acid was tested at concentrations of 100 μM, 500 μM and 1000 μM in ethanol.

For data set [2], the system named is normal human keratinocytes. The data set can be described thus: cytotoxicity, % diminution of the signal compared with the control. Type of data set: cell-based. Particulars: concentration equal to or lower than 500 μM. The source says: Moreover, the cytotoxicity was expressed as % diminution of the signal compared with the control. A product was considered not to be very cytotoxic from 0-20%, acceptable up to 40% and not retained for values >40%.

SMILES strings stand for the structures.

T1 sequence (P35228 whole entry): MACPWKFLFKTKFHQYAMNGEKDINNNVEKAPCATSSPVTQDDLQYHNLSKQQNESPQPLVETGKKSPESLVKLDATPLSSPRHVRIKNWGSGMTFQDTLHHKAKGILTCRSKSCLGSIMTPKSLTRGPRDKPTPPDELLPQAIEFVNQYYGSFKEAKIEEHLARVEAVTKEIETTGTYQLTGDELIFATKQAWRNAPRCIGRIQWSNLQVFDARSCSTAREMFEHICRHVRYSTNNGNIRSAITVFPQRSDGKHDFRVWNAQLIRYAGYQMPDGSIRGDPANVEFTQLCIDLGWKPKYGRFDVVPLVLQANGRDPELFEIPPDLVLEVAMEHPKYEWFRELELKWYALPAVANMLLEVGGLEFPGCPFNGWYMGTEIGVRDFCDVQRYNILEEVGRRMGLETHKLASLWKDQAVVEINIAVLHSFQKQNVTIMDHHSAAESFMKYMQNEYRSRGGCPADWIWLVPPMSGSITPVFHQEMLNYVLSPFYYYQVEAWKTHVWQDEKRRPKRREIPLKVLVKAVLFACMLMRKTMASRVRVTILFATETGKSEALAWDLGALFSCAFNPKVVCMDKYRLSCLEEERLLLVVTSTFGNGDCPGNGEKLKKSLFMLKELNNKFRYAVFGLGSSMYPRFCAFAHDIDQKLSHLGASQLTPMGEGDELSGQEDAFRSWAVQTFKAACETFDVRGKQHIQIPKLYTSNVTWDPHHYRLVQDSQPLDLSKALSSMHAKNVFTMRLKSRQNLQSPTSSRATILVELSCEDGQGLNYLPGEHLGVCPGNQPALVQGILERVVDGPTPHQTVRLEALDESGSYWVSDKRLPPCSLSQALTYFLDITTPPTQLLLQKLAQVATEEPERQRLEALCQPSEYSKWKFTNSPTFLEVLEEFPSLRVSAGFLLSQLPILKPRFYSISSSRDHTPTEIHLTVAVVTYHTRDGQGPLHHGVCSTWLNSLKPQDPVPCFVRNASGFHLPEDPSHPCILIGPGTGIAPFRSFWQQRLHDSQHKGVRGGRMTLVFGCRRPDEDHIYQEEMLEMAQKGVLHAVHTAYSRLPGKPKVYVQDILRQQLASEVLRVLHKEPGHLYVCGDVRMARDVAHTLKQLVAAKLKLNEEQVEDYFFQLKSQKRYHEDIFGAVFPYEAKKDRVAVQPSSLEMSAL

For `COc1cc(CN(CCN(CC(=O)O)Cc2cc(OC)c(OC)c(OC)c2)CC(=O)O)cc(OC)c1OC` [N,N′-bis-(3,4,5-trimethoxybenzyl) ethylenediamine-diacetic acid], the “classification as inhibitor (I) or donor (D) of NO” value in data set [1] (quantity of nitrites and nitrates produced compared to the control signal) is reported as “NO donor effect”. Moreover, the % inhibition (in general, how much of the control response was suppressed) came to 29% in data set [1] (test product 100 μM in ethanol), 70% in data set [1] (test product 500 μM in ethanol) and 84% in data set [1] (test product 1000 μM in ethanol). Further, the cytotoxicity entry in data set [2] is reported as “not toxic”.
